Laboratory results taken from patent publication EP2505659A1, “Methods for the identification of dioxygenase interacting molecules and for the purification of dioxygenase proteins” (CELLZOME AG, priority 2011, dated 2012).
Where a name gives a salt, the structure may show the parent alone.

Key:
[1] = target: T1, ALKBH3 (Homo sapiens, UniProt Q96Q83); assay: Bead competition binding assay, immobilized compound B, HL-60 nuclear extract; conditions: 200 µM free compound B, read-out: Fold change versus DMSO control
T1 construct: capturing and identification of dioxygenases from nuclear protein extracts; endogenous in cells
T1 sequence (Q96Q83 1-286): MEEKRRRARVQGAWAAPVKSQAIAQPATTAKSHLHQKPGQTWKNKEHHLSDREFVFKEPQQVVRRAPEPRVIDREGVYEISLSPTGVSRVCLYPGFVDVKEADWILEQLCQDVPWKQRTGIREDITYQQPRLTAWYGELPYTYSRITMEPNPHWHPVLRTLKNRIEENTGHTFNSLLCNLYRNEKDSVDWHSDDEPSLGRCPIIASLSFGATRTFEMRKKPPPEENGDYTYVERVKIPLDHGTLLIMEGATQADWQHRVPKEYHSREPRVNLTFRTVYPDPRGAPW
Method: (§1) The preparation of HL-60 nuclear lysates, capturing of dioxygenases from cell lysate and the protein identification by Mass Spectrometry was performed as described in example 2.
(§2) Seven different dioxygenases were identified. […] Table 7: Identified dioxygenases with compound B from HL-60 nuclear extract

[2] = target: T2, C17ORF101 (Homo sapiens, UniProt Q6PK18); assay: as above; conditions: 200 µM free compound B, read-out: Fold change versus DMSO control
T2 construct: capturing and identification of dioxygenases from nuclear protein extracts; endogenous in cells
T2 sequence (Q6PK18 1-331 isoform Q6PK18-2): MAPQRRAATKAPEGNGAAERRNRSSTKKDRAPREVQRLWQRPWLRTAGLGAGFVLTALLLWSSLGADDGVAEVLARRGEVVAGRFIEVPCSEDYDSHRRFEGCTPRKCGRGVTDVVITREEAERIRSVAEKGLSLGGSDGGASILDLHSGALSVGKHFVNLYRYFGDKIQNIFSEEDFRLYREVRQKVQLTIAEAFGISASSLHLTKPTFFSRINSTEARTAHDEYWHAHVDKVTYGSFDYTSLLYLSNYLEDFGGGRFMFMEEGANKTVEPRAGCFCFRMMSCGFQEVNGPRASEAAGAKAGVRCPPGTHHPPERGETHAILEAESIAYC
Method: as §1, §2

[3] = target: T3, EGLN1 (Homo sapiens, UniProt Q9GZT9); assay: as above; conditions: 200 µM free compound B, read-out: Fold change versus DMSO control
T3 construct: endogenous in cells
T3 sequence (Q9GZT9 whole entry): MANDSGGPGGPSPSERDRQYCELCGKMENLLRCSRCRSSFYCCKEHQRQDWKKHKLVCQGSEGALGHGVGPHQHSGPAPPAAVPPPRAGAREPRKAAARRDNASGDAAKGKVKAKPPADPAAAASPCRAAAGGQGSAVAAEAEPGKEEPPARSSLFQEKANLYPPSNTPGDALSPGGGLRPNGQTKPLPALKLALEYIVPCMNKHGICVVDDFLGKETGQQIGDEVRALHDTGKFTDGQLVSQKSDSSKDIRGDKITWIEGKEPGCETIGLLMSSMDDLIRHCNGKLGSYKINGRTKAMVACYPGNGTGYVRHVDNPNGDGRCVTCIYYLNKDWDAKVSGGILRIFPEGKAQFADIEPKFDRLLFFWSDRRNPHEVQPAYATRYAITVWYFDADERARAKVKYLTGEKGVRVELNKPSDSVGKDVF
Method: as §1, §2

[4] = target: T4, LEPRE1 (Homo sapiens, UniProt Q32P28); assay: as above; conditions: 200 µM free compound B, read-out: Fold change versus DMSO control
T4 construct: capturing and identification of dioxygenases from nuclear protein extracts; endogenous in cells
T4 sequence (Q32P28 23-736): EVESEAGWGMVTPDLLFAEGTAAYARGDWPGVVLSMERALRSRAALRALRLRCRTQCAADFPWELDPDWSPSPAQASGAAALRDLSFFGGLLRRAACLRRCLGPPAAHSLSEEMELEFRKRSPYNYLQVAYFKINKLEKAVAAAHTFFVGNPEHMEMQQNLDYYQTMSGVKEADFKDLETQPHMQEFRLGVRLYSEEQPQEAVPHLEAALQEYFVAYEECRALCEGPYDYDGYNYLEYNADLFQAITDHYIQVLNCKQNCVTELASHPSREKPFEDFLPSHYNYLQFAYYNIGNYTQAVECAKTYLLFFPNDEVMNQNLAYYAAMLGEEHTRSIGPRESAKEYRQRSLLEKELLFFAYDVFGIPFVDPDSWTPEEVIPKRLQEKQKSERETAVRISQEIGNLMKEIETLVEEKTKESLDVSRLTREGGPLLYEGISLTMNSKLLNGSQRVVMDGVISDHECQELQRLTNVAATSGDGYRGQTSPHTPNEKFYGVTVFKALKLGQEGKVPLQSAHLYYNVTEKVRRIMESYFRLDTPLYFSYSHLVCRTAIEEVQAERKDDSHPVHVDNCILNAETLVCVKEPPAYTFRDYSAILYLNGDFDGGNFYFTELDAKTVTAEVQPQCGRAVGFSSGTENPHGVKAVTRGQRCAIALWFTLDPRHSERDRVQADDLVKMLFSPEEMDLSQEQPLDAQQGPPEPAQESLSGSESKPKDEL
Method: as §1, §2

[5] = target: T5, OGFOD2 (Homo sapiens, UniProt Q6N063); assay: as above; conditions: 200 µM free compound B, read-out: Fold change versus DMSO control
T5 construct: endogenous in cells; host or cells: HL-60 nuclear extract
T5 sequence (Q6N063 1-350): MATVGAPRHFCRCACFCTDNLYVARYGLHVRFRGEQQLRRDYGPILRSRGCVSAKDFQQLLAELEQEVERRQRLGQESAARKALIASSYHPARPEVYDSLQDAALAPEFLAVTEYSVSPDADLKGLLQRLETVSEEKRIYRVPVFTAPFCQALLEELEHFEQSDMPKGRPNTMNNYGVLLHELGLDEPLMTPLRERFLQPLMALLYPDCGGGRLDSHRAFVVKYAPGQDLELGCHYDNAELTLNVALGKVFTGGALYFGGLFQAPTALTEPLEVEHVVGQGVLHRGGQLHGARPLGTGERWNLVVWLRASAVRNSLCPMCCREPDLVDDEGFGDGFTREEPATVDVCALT
Method: as §1, §2

[6] = target: T6, P4HA1 (Homo sapiens, UniProt P13674); assay: as above; conditions: 200 µM free compound B, read-out: Fold change versus DMSO control
T6 construct: endogenous in cells
T6 sequence (P13674 18-534): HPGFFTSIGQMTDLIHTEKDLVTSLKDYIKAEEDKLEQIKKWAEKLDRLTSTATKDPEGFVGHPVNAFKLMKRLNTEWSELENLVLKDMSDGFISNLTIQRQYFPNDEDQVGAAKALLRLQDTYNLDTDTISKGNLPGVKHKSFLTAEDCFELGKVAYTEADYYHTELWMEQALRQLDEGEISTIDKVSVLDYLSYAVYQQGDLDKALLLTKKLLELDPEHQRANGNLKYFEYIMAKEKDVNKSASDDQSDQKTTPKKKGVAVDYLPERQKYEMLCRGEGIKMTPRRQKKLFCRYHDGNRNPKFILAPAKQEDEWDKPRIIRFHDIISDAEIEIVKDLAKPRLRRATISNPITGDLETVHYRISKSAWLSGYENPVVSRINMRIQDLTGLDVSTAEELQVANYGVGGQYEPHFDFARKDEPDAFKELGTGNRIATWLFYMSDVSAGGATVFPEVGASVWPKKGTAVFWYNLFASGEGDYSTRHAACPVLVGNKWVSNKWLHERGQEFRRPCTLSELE
T6 sequence (P07237 18-508 partner): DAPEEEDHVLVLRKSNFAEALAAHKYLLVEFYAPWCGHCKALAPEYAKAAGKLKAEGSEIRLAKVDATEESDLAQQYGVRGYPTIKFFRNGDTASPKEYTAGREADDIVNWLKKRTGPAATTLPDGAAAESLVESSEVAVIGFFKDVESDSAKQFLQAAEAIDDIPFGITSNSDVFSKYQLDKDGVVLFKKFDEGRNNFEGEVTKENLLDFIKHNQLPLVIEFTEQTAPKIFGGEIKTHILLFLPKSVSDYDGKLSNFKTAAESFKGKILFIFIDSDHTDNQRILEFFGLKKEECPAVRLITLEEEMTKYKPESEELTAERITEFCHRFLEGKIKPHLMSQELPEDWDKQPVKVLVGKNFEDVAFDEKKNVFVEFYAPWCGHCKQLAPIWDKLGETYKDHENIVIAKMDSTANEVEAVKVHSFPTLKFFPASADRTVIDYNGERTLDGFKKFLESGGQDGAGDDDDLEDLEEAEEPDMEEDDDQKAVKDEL
Method: as §1, §2

[7] = target: T7, LEPREL2 (Homo sapiens, UniProt Q8IVL6); assay: as above; conditions: 200 µM free compound B, read-out: Fold change versus DMSO control
T7 construct: capturing and identification of dioxygenases from nuclear protein extracts; endogenous in cells
T7 sequence (Q8IVL6 21-736): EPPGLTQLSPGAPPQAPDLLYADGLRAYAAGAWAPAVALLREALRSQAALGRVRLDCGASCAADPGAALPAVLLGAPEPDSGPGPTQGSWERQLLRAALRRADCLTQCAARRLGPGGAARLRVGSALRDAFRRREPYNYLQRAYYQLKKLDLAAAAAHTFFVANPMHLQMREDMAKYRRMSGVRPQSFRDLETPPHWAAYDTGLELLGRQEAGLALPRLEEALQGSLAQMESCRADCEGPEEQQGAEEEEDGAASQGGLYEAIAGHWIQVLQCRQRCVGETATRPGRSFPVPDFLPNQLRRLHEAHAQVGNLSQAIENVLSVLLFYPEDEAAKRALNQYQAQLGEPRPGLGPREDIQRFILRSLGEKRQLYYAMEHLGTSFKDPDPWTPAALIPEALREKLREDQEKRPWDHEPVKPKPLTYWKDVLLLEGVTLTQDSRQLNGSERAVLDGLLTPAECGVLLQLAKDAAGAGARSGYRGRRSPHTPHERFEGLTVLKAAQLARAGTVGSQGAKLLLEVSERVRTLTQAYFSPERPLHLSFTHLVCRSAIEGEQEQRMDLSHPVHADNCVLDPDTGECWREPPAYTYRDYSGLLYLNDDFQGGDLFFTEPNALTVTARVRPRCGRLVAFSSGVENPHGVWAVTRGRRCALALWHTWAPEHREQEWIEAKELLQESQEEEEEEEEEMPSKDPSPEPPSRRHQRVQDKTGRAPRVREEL
Method: as §1, §2

[8] = target: T1, ALKBH3; assay: Bead competition binding assay, immobilized compound C, HL-60 nuclear extract; conditions: 200 µM free compound C, read-out: Fold change versus DMSO control
Method: as §1
(§3) Seven different dioxygenases were identified. […] Table 8: Identified dioxygenases with compound C from HL-60 nuclear extract

[9] = target: T2, C17ORF101; assay: as above; conditions: 200 µM free compound C, read-out: Fold change versus DMSO control
Method: as §1, §3

[10] = target: T8, PLOD1 (Homo sapiens, UniProt Q02809); assay: as above; conditions: 200 µM free compound C, read-out: Fold change versus DMSO control
T8 construct: capturing and identification of dioxygenases from nuclear protein extracts; endogenous in cells
T8 sequence (Q02809 19-727): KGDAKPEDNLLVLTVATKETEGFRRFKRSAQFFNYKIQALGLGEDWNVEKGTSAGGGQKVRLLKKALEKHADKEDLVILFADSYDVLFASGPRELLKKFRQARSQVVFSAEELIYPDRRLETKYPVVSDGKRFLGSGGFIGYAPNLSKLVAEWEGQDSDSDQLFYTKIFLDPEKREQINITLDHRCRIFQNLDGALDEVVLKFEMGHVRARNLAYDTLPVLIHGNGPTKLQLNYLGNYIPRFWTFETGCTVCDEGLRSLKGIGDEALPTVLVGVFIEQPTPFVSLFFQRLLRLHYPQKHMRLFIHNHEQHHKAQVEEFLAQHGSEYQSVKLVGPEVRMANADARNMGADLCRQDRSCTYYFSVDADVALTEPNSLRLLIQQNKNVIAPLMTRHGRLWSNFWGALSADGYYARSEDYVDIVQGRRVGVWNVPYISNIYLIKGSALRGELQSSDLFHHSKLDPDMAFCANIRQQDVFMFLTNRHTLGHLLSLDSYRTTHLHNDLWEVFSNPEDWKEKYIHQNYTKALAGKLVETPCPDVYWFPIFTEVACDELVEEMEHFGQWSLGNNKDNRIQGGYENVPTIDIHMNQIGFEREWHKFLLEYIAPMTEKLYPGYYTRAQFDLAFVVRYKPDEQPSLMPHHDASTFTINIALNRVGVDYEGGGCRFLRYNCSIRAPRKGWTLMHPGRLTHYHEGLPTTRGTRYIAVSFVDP
Method: as §1, §3

[11] = target: T3, EGLN1; assay: as above; conditions: 200 µM free compound C, read-out: Fold change versus DMSO control
Method: as §1, §3

[12] = target: T4, LEPRE1; assay: as above; conditions: 200 µM free compound C, read-out: Fold change versus DMSO control
Method: as §1, §3

[13] = target: T6, P4HA1; assay: as above; conditions: 200 µM free compound C, read-out: Fold change versus DMSO control
Method: as §1, §3

[14] = target: T7, LEPREL2; assay: as above; conditions: 200 µM free compound C, read-out: Fold change versus DMSO control
Method: as §1, §3

| remaining binding at 200 µM [1] [%] | remaining binding at 200 µM [2] [%] | remaining binding at 200 µM [3] [%] | remaining binding at 200 µM [4] [%] | remaining binding at 200 µM [5] [%] | remaining binding at 200 µM [6] [%] | remaining binding at 200 µM [7] [%] | remaining binding at 200 µM [8] [%] | remaining binding at 200 µM [9] [%] | remaining binding at 200 µM [10] [%] | remaining binding at 200 µM [11] [%] | remaining binding at 200 µM [12] [%] | remaining binding at 200 µM [13] [%] | remaining binding at 200 µM [14] [%] | SMILES |
| --- | --- | --- | --- | --- | --- | --- | --- | --- | --- | --- | --- | --- | --- | --- |
| 56 | 52 | 52 | 67 | 18 | 24 | 13 | – | – | – | – | – | – | – | O=C(O)CNC(=O)C1C(=O)OC2(CCCNC2)OC1=O (centres unmarked) [compound B, 2-(2,4-dioxo-1,5-dioxa-8-azaspiro[5.5]undecane-3-carboxamido)acetic acid hydrochloride] |
| – | – | – | – | – | – | – | 45 | 24 | 51 | 19 | 48 | 10 | 12 | O=C(O)CNC(=O)C1C(=O)OC(C2CCNCC2)OC1=O (centres unmarked) [compound C, 2-(4,6-dioxo-2-(piperidin-4-yl)-1,3-dioxane-5-carboxamido)acetic acid hydrochloride] |
